Data set [1] relates to human colon cancer LoVo cell. Kind of data set: MTT proliferation assay, LoVo. It counts as cell-based. The conditions noted are these: MTT, 4 days, read-out: IC50 (nM), proliferation of LoVo cell. How it is done: (§1) The cells were seeded into 96-well cell culture plate with a density of 2000/4000 cells per well and incubated overnight in a 5% CO2 incubator at 37° C. […] 5 μL diluent of each concentration was added to 120 μL of medium (25 times diluted) and mixed by shaking. The overnight cell plates were taken and the culture medium was removed, 195 μL of fresh medium was added to each well, and 5 μL of diluted medium containing the corresponding concentration of the test compound was added respectively (the final concentration of DMSO is 1%), and the culture plate was then placed in a 5% CO2 incubator at 37° C. for 4 days. After removing the original solution, 100 SEL of fresh serum-free DMEM medium containing MTT (0.5 mg/mL) was added to each well, the culture was continued. […] Cell viability (%)=(ODcompound−ODbackground)/ODDMSO−ODbackground)×100. GraphPad Prism 6.0 was used to analyze the data. The inhibitory activity of compounds on cell proliferation was plotted based on cell viability and the logarithm of compound concentration. The IC5.0 value was fitted by a sigmoidal dose response curve equation Y=100/(1+10^(LogC-LogIC50)), wherein C was the concentration of compound.

The target in data set [2] is T1, ATR/ATRIP enzyme (Homo sapiens, UniProt Q13535).
T1 construct: purchased Eurofins 14-953
Kind of data set: ATR enzyme activity experiment (HTRF). It counts as biochemical. The conditions noted are these: p53 substrate, 30 min room temperature, read-out: IC50 (nM), inhibitory effect on ATR kinase activity. How it is done:
The mixture was centrifuged at 1000 rpm for 1 minute, and reacted at room temperature protected from light for 30 minutes. Then 5 μL of EDTA stop solution (250 mM) was added to stop the reaction.
(In TR-FRET formats the signal depends on donor and acceptor labels being close together.)

The test system of data set [3] is human lung cancer NCI-H460 cell. Kind of data set: MTT proliferation assay, NCI-H460. It counts as cell-based. The conditions noted are these: NCI-H460, 96 h, MTT, 4 days, read-out: IC50 (nM), proliferation of NCI-H460 cell. How it is done:
The cells were digested by trypsinase and centrifuged at 800 rpm for 5 minutes, the supernatant was discarded, and the residual was resuspended with fresh medium […]) and counted.
as §1, with “μL” for “SEL”, “(%)=(ODcompound−ODbackground)/(ODDMSO−ODbackground)×100.” for “(%)=(ODcompound−ODbackground)/ODDMSO−ODbackground)×100.”, “IC50” for “IC5.0”, “[…],” for “Y=100/(1+10^(LogC-LogIC50)),”
(Formazan colour is commonly taken as a measure of viable cells.)

The nature of data set [4]: Pharmacokinetics following single oral administration to mice. It is filed as in vivo. The conditions noted are these: mouse, CD-1 (ICR) mice, gavage 10 mg/kg, 0.5% methylcellulose/water suspension, plasma. How it is done: The compound of the present invention was formulated into a 0.5% methylcellulose/water uniform suspension, and was administered to CD-1 (ICR) mice by gavage at 10 mg/kg. Plasma samples were collected at 8 time points of 0.250, 0.500, 1.00, 2.00, 4.00, 6.00, 8.00 and 24.0 hours post-dose. Concentrations of the compound were determined by LC-MS/MS method.

Where two headings read alike, the source gives them in different places.

T1 sequence (Q13535 whole entry): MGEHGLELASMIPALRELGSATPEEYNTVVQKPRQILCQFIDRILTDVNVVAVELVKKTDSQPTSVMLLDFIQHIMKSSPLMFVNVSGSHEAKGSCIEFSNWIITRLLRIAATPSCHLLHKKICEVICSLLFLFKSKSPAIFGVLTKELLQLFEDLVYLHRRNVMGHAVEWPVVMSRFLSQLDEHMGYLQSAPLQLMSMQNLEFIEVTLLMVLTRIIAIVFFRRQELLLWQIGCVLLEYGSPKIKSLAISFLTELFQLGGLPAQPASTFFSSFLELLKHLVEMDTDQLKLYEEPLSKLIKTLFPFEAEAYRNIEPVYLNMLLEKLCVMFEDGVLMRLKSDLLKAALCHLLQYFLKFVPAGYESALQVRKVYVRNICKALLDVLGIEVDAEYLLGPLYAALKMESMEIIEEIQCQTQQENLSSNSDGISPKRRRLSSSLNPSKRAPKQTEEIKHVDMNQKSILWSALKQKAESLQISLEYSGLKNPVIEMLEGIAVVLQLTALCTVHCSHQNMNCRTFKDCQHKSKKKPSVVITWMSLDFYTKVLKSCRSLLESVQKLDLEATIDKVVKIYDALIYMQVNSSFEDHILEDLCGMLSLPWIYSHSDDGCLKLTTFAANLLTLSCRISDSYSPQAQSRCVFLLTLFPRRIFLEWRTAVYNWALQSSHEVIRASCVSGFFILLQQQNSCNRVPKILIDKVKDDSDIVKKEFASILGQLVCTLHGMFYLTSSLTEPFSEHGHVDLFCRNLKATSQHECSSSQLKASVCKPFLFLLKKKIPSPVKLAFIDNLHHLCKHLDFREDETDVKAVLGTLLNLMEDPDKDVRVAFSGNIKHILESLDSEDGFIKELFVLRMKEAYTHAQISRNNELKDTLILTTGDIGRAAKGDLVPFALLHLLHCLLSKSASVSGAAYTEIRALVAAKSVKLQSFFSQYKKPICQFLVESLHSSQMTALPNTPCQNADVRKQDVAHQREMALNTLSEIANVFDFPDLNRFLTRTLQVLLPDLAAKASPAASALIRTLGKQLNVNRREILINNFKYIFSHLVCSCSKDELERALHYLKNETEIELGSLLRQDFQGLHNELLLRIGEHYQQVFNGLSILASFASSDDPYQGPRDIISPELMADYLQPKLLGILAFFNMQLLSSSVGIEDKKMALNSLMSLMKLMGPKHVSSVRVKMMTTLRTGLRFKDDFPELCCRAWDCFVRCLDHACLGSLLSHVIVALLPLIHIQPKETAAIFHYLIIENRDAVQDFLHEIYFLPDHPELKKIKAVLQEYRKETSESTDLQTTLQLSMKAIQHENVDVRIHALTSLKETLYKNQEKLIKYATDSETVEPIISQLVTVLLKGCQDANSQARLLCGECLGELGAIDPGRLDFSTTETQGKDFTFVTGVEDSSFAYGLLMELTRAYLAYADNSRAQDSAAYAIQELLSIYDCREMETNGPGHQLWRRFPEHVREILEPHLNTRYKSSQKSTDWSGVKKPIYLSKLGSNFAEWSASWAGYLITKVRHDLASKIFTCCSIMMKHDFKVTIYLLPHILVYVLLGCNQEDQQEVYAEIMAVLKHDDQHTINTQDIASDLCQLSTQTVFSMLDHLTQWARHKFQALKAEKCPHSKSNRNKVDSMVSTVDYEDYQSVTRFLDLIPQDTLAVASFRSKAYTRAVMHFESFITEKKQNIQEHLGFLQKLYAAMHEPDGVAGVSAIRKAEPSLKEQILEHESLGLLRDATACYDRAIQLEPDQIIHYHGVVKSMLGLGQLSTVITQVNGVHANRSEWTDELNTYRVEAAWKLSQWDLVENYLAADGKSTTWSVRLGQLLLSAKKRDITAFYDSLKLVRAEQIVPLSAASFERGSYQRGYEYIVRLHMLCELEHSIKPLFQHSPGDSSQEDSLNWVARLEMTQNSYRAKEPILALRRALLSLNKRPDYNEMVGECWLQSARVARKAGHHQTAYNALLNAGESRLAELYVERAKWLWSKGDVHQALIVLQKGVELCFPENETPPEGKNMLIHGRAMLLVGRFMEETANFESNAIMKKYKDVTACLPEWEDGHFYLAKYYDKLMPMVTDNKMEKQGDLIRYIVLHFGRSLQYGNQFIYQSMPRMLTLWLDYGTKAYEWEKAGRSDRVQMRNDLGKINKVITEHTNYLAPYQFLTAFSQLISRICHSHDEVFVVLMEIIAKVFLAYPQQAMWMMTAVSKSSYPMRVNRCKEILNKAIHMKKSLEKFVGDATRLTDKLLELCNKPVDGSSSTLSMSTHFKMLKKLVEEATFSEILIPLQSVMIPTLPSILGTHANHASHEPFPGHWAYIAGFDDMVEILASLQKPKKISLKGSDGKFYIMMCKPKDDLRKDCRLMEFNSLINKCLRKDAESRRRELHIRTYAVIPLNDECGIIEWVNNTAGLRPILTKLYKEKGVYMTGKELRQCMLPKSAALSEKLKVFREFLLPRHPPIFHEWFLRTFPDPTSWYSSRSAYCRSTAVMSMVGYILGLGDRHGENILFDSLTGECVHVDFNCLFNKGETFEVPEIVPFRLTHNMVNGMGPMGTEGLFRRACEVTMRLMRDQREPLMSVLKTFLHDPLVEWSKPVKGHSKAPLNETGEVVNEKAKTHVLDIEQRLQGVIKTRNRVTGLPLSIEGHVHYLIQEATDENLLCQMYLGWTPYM
T1 sequence (Q8WXE1 whole entry partner): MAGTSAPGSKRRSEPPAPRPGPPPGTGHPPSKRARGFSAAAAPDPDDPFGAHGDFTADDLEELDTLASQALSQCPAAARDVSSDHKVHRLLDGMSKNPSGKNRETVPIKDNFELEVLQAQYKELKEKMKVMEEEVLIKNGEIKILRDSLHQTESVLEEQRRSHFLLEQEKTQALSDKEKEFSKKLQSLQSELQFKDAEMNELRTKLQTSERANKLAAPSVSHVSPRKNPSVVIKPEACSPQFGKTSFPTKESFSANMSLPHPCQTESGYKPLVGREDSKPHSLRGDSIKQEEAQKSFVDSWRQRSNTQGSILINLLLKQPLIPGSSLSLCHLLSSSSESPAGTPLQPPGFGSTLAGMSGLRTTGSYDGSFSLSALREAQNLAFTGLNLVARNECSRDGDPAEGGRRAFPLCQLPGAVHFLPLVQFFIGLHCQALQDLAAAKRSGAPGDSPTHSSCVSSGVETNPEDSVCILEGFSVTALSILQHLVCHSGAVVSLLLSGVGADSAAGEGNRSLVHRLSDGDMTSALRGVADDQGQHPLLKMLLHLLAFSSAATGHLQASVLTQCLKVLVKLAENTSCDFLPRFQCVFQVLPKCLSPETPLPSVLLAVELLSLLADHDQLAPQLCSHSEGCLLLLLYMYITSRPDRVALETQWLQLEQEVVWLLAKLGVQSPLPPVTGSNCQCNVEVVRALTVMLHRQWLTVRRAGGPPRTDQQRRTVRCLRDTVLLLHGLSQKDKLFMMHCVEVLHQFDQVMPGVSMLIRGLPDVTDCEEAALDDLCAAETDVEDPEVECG

For the compound `CCn1nccc1-c1cc(N2CCOC[C@H]2C)nn2c(-c3ccn[nH]3)nc(C)c12` [Example 2, (R)-4-(4-(1-ethyl-1H-pyrazol-5-yl)-5-methyl-7-(1H-pyrazol-5-yl)imidazo[1,5-b]pyridazin-2-yl)-3-methylmorpholine], the IC50 in data set [1] (Homo sapiens, LoVo, 96 h) came to 43.6 nM; in data set [2], 3 nM; in data set [3], 21.9 nM.
In the same order, the values of `Cc1ccccc1-c1cc(N2CCOC[C@H]2C)nn2c(-c3ccn[nH]3)nc(C)c12` [Example 3, (R)-3-methyl-4-(5-methyl-7-(1H-pyrazol-5-yl)-4-(o-tolyl)imidazo[1,5-b]pyridazin-2-yl)morpholine] are 49.5 nM, 2 nM and 27.3 nM.
For the compound `Cc1ncccc1-c1cc(N2CCOC[C@H]2C)nn2c(-c3ccn[nH]3)nc(C)c12` [Example 4, (R)-3-methyl-4-(5-methyl-4-(2-methylpyridin-3-yl)-7-(1H-pyrazol-5-yl)imidazo[1,5-b]pyridazin-2-yl)morpholine], the IC50 in data set [1] (Homo sapiens, LoVo, 96 h) turned out to be 26.9 nM. Moreover, in data set [4], the AUC(0-inf) (commonly total exposure, with the tail of the curve extrapolated) was found to be 44000 ng·h/mL; the AUC(0-t) – broadly, exposure summed from dosing to a finite time, without extrapolation to infinity – is 43400 ng·h/mL; the Cmax – broadly, the highest concentration seen after dosing – came out at 9010 ng/mL; the half-life (usually the time in which the quantity being followed falls by half) was 3.2 h. In data set [2], the IC50 is 3 nM. Further, in data set [3], the IC50 is 13 nM.
For the compound `Cc1nc(-c2ccn[nH]2)n2nc(N3CCOC[C@H]3C)cc(-c3cccnc3C(F)(F)F)c12` [Example 5, (R)-3-methyl-4-(5-methyl-7-(1H-pyrazol-5-yl)-4-(2-(trifluoromethyl)pyridin-3-yl)imidazo[1,5-b]pyridazin-2-yl)morpholine], the IC50 in data set [1] (Homo sapiens, LoVo, 96 h) was 25.5 nM. For the same compound, in data set [4], the AUC(0-inf) came out at 31700 ng·h/mL, the AUC(0-t) was 30800 ng·h/mL, the Cmax is 8930 ng/mL and the half-life was 3.42 h. For the same compound, the IC50 in data set [2] came to 3 nM. Besides, the IC50 in data set [3] came out at 17.8 nM.
`Cc1nc(-c2ccn[nH]2)n2nc(N3CCOC[C@H]3C)cc(-c3cccc(C#N)c3)c12` [Example 6, (R)-3-(5-methyl-2-(3-methylmorpholino)-7-(1H-pyrazol-5-yl)imidazol, [1,5-b]pyridazin-4-yl)benzonitrile]: the IC50 in data set [1] (Homo sapiens, LoVo, 96 h) is 44.1 nM; in data set [2], 5 nM; in data set [3], 21.8 nM.
For `Cc1nc(-c2ccn[nH]2)n2nc(N3CCOC[C@H]3C)cc(C3CCOCC3)c12` [Example 7, (R)-3-methyl-4-(5-methyl-7-(1H-pyrazol-5-yl)-4-(tetrahydro-2H-pyran-4-yl)imidazol[1,5-b]pyridazin-2-yl)morpholine], the IC50 was 24.6 nM in data set [1] (Homo sapiens, LoVo, 96 h); 1 nM in data set [2]; 15.7 nM in data set [3].
In the same order, the values of `Cc1cc(-c2nc(C)c3c(-c4ccnn4C)cc(N4CCOC[C@H]4C)nn23)[nH]n1` [Example 8, (R)-3-methyl-4-(5-methyl-4-(1-methyl-1H-pyrazol-5-yl)-7-(3-methyl-1H-pyrazol-5-yl)imidazo[1,5-b]pyridazin-2-yl)morpholine] are 17.9 nM, 4 nM and 14.9 nM.
In the same order, the values of `Cc1nc(-c2ccn[nH]2)n2nc(N3CCOC[C@H]3C)cc(-c3ccnn3C(C)C)c12` [Example 9, (R)-4-(4-(1-isopropyl-1H-pyrazol-5-yl)-5-methyl-7-(1H-pyrazol-5-yl)imidazo[1,5-b]pyridazin-2-yl)-3-methylmorpholine] are 39.3 nM, 3 nM and 30.2 nM.
On to `Cc1nc(-c2ccn[nH]2)n2nc(N3CCOC[C@H]3C)cc(-c3ccn(C(F)F)n3)c12` [Example 10, (R)-4-(4-(1-(difluoromethyl)-1H-pyrazol-3-yl)-5-methyl-7-(1H-pyrazol-5-yl)imidazo[1,5-b]pyridazin-2-yl)-3-methylmorpholine], for which the IC50 in data set [1] (Homo sapiens, LoVo, 96 h) was determined as 116 nM; in data set [2], 217 nM; in data set [3], 97.3 nM.
With `Cc1cnn(C)c1-c1cc(N2CCOC[C@H]2C)nn2c(-c3ccn[nH]3)nc(C)c12` [Example 11, (R)-4-(4-(1,4-dimethyl-1H-pyrazol-5-yl)-5-methyl-7-(1H-pyrazol-5-yl)imidazo[1,5-b]pyridazin-2-yl)-3-methylmorpholine], the values for the IC50 in data set [2] and in data set [3] were 2 nM and 30.1 nM, respectively.
Take `Cc1nc(-c2ccn[nH]2)n2nc(N3CCOC[C@H]3C)cc(-c3cnn(C)c3C)c12` [Example 12, (R)-4-(4-(1,5-dimethyl-1H-pyrazol-4-yl)-5-methyl-7-(1H-pyrazol-5-yl)imidazo[1,5-b]pyridazin-2-yl)-3-methylmorpholine]: the IC50 in data set [1] (Homo sapiens, LoVo, 96 h) is 19.6 nM; in data set [2], 1 nM; in data set [3] it was 28 nM.
In the same order, the values of `Cc1nn(C)cc1-c1cc(N2CCOC[C@H]2C)nn2c(-c3ccn[nH]3)nc(C)c12` [Example 13, (R)-4-(4-(1,3-dimethyl-1H-pyrazol-4-yl)-5-methyl-7-(1H-pyrazol-5-yl)imidazo[1,5-b]pyridazin-2-yl)-3-methylmorpholine] are 46.5 nM, 14 nM and 33.2 nM.
In the same order, the values of `Cc1cc(S(C)(=O)=O)ccc1-c1cc(N2CCOC[C@H]2C)nn2c(-c3ccn[nH]3)nc(C)c12` [Example 15, (R)-3-methyl-4-(5-methyl-4-(2-methyl-4-(methylsulfonyl)phenyl)-7-(1H-pyrazol-5-yl)imidazo[1,5-b]pyridazin-2-34)morpholine] are 19.5 nM, 6 nM and 12.5 nM.
Consider `Cc1nc(-c2ccn[nH]2)n2nc(N3CCOC[C@H]3C)cc(-c3cccnc3F)c12` [Example 16, (R)-4-(4-(2-fluoropyridin-3-yl)-5-methyl-7-(1H-pyrazol-5-yl)imidazo[1,5-b]pyridazin-2-yl)-3-methylmorpholine], for which the IC50 is 17.6 nM in data set [1] (Homo sapiens, LoVo, 96 h); 9 nM in data set [2]; 12.5 nM in data set [3].
For the compound `Cc1ccc(-c2cc(N3CCOC[C@H]3C)nn3c(-c4ccn[nH]4)nc(C)c23)cn1` [Example 17, (R)-3-methyl-4-(5-methyl-4-(6-methylpyridin-3yl)-7-(1H-pyrazol-5-yl)imidazo[1,5-b]pyridazin-2-yl)morpholine], the IC50 in data set [1] (Homo sapiens, LoVo, 96 h) was 49.1 nM; in data set [2], 18 nM; in data set [3], 45.8 nM.
As for `Cc1nc(-c2ccn[nH]2)n2nc(N3CCOC[C@H]3C)cc(-c3ccncc3F)c12` [Example 18, (R)-4-(4-(3-fluoropyridin-4-yl)-5-methyl-7-(1H-pyrazol-5-yl)imidazo[1,5-b]pyridazin-2-yl)-3-methylmorpholine], the IC50 worked out at 41.8 nM in data set [1] (Homo sapiens, LoVo, 96 h); 47.2 nM in data set [1]; 10 nM in data set [2]; 28 nM in data set [3].
Regarding `C[C@@H]1COCCN1c1cc(-c2ccnn2C)c2c(F)nc(-c3ccn[nH]3)n2n1` [Example 20, (R)-4-(5-fluoro-4-(1-methyl-1H-pyrazol-5-yl)-7-(1H-pyrazol-5-yl)imidazo[1,5-b]pyridazin-2-yl)-3-methylmorpholine], the IC50 in data set [1] (Homo sapiens, LoVo, 96 h) turned out to be 79.1 nM; in data set [2] it was 41 nM; in data set [3], 89.9 nM.
Consider `C[C@@H]1COCCN1c1nc(-c2ccnn2C)c2cnc(-c3cc[nH]n3)n2n1` [Example 27, (R)-3-methyl-4-(4-(1-methyl-1H-pyrazol-5-yl)-7-(1H-pyrazol-3-yl)imidazo[5,1-f][1,2,4]triazin-2-yl)morpholine], for which the IC50 worked out at 110 nM in data set [1] (Homo sapiens, LoVo, 96 h) and 68.3 nM in data set [3].

These data come from US20240059695A1, “SUBSTITUTED IMIDAZO[1,5-b]PYRIDAZINE COMPOUNDS AS KINASE INHIBITORS AND USE THEREOF” (IMPACT THERAPEUTICS (SHANGHAI), INC, priority 2020, published 2024).
